From PMC3604156 (Transplantation, 2013)
Like-named read-outs stand apart in the source and are kept apart here.

What was measured:
[1] = format: in vivo, human; details: for AUC0–inf: whole blood, single oral 5 mg/kg CsA, mean ± SD
[2] = format: in vivo, human; details: expressors vs nonexpressors

AUCAM19/AUCAM1 ratio, higher in CYP3A5 expressors compared to nonexpressors ([1]; expressors vs nonexpressors): 46.9% | average blood AUC, higher in CYP3A5 expressors compared to nonexpressors ([1]; expressors vs nonexpressors): 47.4% | AUC0–inf ([1]; CYP3A5 expressors (n=12)): 1360 ± 602 ng·h/mL | AUC0–inf ([1]; CYP3A5 nonexpressors (n=12)): 923 ± 343 ng·h/mL | average cumulative amount excreted in urine, higher in CYP3A5 expressors compared to nonexpressors [2]: 48%
Structure (SMILES): CC[C@@H]1NC(=O)[C@H]([C@H](O)[C@H](C)C/C=C/CO)N(C)C(=O)[C@H](C(C)C)N(C)C(=O)[C@H](CC(C)C)N(C)C(=O)[C@H](CC(C)(C)O)N(C)C(=O)[C@@H](C)NC(=O)[C@H](C)NC(=O)[C@H](CC(C)C)N(C)C(=O)[C@H](C(C)C)NC(=O)[C@H](CC(C)C)N(C)C(=O)CN(C)C1=O [AM19]
